Results published in US7511145B2 (Genelabs Technologies, Inc., priority 2003, dated 2009).

Biological target: T1, HCV-NS5b (Hepatitis C virus genotype 1b, UniProt Q9WMX2)
T1 construct: (His)6 (C); made in house; host or cells: XL-1 cells (E. coli), IPTG-inducible plasmid, nickel-NTA purification
Test: HCV-NS5b enzyme assay (incorporation of radiolabeled UTP)
Assay type: biochemical
Conditions: for inhibition at 33 µM: enzyme inhibition at compound concentration of 33 uM; for inhibition at 100 µM: read-out: % inh@100, enzyme inhibition at compound concentration of 100 uM
In short: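 Percent inhibition, background-corrected against uninhibited control, was measured at 100 and 33 uM compound. Incorporation of [3H]-UTP (10 μM each NTP) into biotinylated HCV-template RNA, 37° C for 2 h, pH 7.5, scintillation proximity. Enzyme: C-terminally truncated (21 aa), His6-tagged NS5b from XL-1.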

| SMILES | inhibition at 33 µM [%] | inhibition at 100 µM [%] |
| --- | --- | --- |
| O=C(O)c1ccc2c(c1)nc(-c1ccc3nc(-c4ccc(Oc5ccccc5)cc4)ccc3c1)n2C1CCCCC1 [Compound 428, 1-cyclohexyl-2-[2-(4-phenoxy-phenyl)-quinolin-6-yl]-1H-benzoimidazole-5-carboxylic acid] | 98.8 | 99.6 |
| O=C(O)c1ccc2c(c1)nc(-c1ccc3nc(-c4ccc(N5CCOCC5)cc4)ccc3c1)n2C1CCCCC1 [Compound 429, 1-cyclohexyl-2-[2-(4-morpholin-4-yl-phenyl)-quinolin-6-yl]-1H-benzoimidazole-5-carboxylic acid] | 96.2 | 101 |
| O=C(O)c1ccc2c(c1)nc(-c1ccc3nc(-c4cc(OCCCN5CCCC5)ccc4-c4ccccc4)ccc3c1)n2C1CCCCC1 [Compound 430, 1-Cyclohexyl-2-{2-[4-(3-pyrrolidin-1-yl-propoxy)-biphen-2-yl]-quinolin-6-yl}-1H-benzoimidazole-5-carboxylic acid] | 98 | 96.7 |
| O=C(O)c1ccc2c(c1)nc(-c1ccc3nc(-c4cn(-c5cccnc5Cl)c(=O)[nH]c4=O)ccc3c1)n2C1CCCCC1 [Compound 431, 2-{2-[1-(2-chloro-pyridin-3-yl)-2,4-dioxo-1,2,3,4-tetrahydro-pyrimidin-5-yl]-quinolin-6-yl}-1-cyclohexyl-1H-benzoimidazole-5-carboxylic acid] | 95.3 | 96.4 |
| O=C(O)c1ccc2c(c1)nc(-c1ccc3nc(-c4cc[nH]c4)ccc3c1)n2C1CCCCC1 [Compound 432, 1-cyclohexyl-2-[2-(1H-pyrrol-3-yl)-quinolin-6-yl]-1H-benzoimidazole-5-carboxylic acid] | 88.9 | 96.4 |
| O=C(O)c1ccc2c(c1)nc(-c1ccc3nc(-c4ccccc4)cc(Nc4ccccc4)c3c1)n2C1CCCCC1 [Compound 433, 1-cyclohexyl-2-(2-phenyl-4-phenylamino-quinolin-6-yl)-1H-benzoimidazole-5-carboxylic acid] | 92.5 | 100 |
| COc1cccc(O)c1-c1ccc2cc(-c3nc4cc(C(=O)O)ccc4n3C3CCCCC3)ccc2n1 [Compound 434, 1-cyclohexyl-2-[2-(2-hydroxy-6-methoxy-phenyl)-quinolin-6-yl]-1H-benzoimidazole-5-carboxylic acid] | 105 | 102 |
| O=C(O)c1ccc2c(c1)nc(-c1ccc3nc(-c4cc(C(=O)N5CCCC5)ccc4-c4ccc([N+](=O)[O-])cc4)ccc3c1)n2C1CCCCC1 [Compound 435, 1-cyclohexyl-2-{2-[4′-nitro-4-(pyrrolidine-1-carbonyl)biphen-2-yl]quinolin-6-yl}-1H-benzimidazole-5-carboxylic acid] | 102 | 101 |
| COc1ccc(-c2ccc(C(F)(F)F)cc2)c(-c2ccc3cc(-c4nc5cc(C(=O)O)ccc5n4C4CCCCC4)ccc3n2)c1 [Compound 436, 1-cyclohexyl-2-[2-(4-methoxy-4′-trifluoromethyl-biphen-2-yl)-quinolin-6-yl]-1H-benzoimidazole-5-carboxylic acid] | 98.8 | 99.3 |
| COc1ccc(-c2cccc(C(=O)O)c2)c(-c2ccc3cc(-c4nc5cc(C(=O)O)ccc5n4C4CCCCC4)ccc3n2)c1 [Compound 437, 2-[2-(3′-carboxy-4-methoxy-biphen-2-yl)-quinolin-6-yl]-1-cyclohexyl-1H-benzoimidazole-5-carboxylic acid] | 100 | 101 |
| COc1ccc(-c2ccc(C)cc2)c(-c2ccc3cc(-c4nc5cc(C(=O)O)ccc5n4C4CCCCC4)ccc3n2)c1 [Compound 438, 1-cyclohexyl-2-[2-(4-methoxy-4′-methyl-biphen-2-yl)-quinolin-6-yl]-1H-benzoimidazole-5-carboxylic acid] | 98.7 | 99.6 |
| O=C(O)c1ccc2c(c1)nc(-c1ccc3nc(-c4cc([N+](=O)[O-])ccc4-c4ccc(Cl)cc4)ccc3c1)n2C1CCCCC1 [Compound 439, 2-[2-(4′-chloro-4-nitro-biphen-2-yl)-quinolin-6-yl]-1-cyclohexyl-1H-benzoimidazole-5-carboxylic acid] | 99.2 | 97 |
| O=C(O)c1ccc2c(c1)nc(-c1ccc3nc(-c4ccccc4-c4ccc(Cl)cc4)c(-c4ccccc4)cc3c1)n2C1CCCCC1 [Compound 440, 2-[2-(4′-Chloro-biphen-2-yl)-3-phenyl-quinolin-6-yl]-1-cyclohexyl-1H-benzoimidazole-5-carboxylic acid] | 99.2 | 97.8 |
| COc1ccc(-c2nc3ccc(-c4nc5cc(C(=O)O)ccc5n4C4CCCCC4)cc3nc2-c2ccc(OC)cc2)cc1 [Compound 441, 2-[2,3-Bis-(4-methoxyphenyl)quinoxalin-6-yl]-1-cyclohexyl-1H-benzimidazole-5-carboxylic acid] | 97.3 | 98.8 |
| O=C(O)c1ccc2c(c1)nc(-c1ccc3nc(-c4cnccn4)ccc3c1)n2C1CCCCC1 [Compound 442, 1-cyclohexyl-2-(2-pyrazin-2-yl-quinolin-6-yl)-1H-benzoimidazole-5-carboxylic acid] | 92.5 | 98.2 |
| O=C(O)c1ccc2c(c1)nc(-c1ccc3nc(-c4ccncc4)ccc3c1)n2C1CCCCC1 [Compound 443, 1-cyclohexyl-2-(2-pyridin-4-yl-quinolin-6-yl)-1H-benzoimidazole-5-carboxylic acid] | 87 | 98.7 |
| Cc1ccc2cc(-c3ccc4cc(-c5nc6cc(C(=O)O)ccc6n5C5CCCCC5)ccc4n3)ccc2c1 [Compound 444, 1-cyclohexyl-2-[2-(6-methyl-naphthalen-2-yl)-quinolin-6-yl]-1H-benzoimidazole-5-carboxylic acid] | 99.5 | 101 |
| COCCOc1cccc(-c2ccc3cc(-c4nc5cc(C(=O)O)ccc5n4C4CCCCC4)ccc3n2)c1 [Compound 445, 1-Cyclohexyl-2-{2-[3-(2-methoxy-ethoxy)-phenyl]-quinolin-6-yl}-1H-benzoimidazole-5-carboxylic acid] | 96.9 | 99.6 |
| O=C(O)c1ccc2c(c1)nc(-c1ccc3nc(-c4ccccc4[N+](=O)[O-])ccc3c1)n2C1CCCCC1 [Compound 446] | 96.6 | 101 |
| O=C(O)c1ccc2c(c1)nc(-c1ccc3nc(-c4cc(OCCCN5CCCC5)ccc4-c4ccc(Cl)cc4)ccc3c1)n2C1CCCCC1 [Compound 447, 2-{2-[4′-Chloro-4-(3-pyrrolidin-1-yl-propoxy)-biphen-2-yl]-quinolin-6-yl}-1-cyclohexyl-1H-benzoimidazole-5-carboxylic acid] | 97.8 | 94.9 |
| Cc1oc2ccc(OCc3ccccc3)cc2c1-c1ccc2cc(-c3nc4cc(C(=O)O)ccc4n3C3CCCCC3)ccc2n1 [Compound 448, 2-[2-(5-benzyloxy-2-methyl-benzofuran-3-yl)-quinolin-6-yl]-1-cyclohexyl-1H-benzoimidazole-5-carboxylic acid] | 94.6 | 96 |
